The values below come from patent US9701670B2, “Pyrazolyl-ureas as kinase inhibitors” (RESPIVERT LIMITED, priority 2013, dated 2017).

A value given as a limit tells only on which side of the number the result lay.

In series [1] the test system is Differentiated U937 cells. The experiment in a line: (l) Cell viability: MTT assay. To be noted: 1 μg/mL. Type of series: cell-based, human. In outline:
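Differentiated U937 cells were exposed to compound at 1 or 10 μg/mL either 4 h in 5% FCS RPMI1640 or 24 h in 10% FCS RPMI1640, then given MTT for 1 h, DMSO-solubilised and read at 550 nm. Percent viability loss versus 0.5% DMSO vehicle; apparent gains appear negative.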

Series [2] concerns the target p38 MAPKα isoform (MAPK14) (Homo sapiens (Human), UniProt Q16539). Briefly: p38 MAPKα enzyme inhibition (FRET, Z-LYTE), Method 1. The format is biochemical. Conditions: Method 1 (Table 4a1).

Chain of p38 MAPKα isoform (MAPK14) (Q16539 whole entry, canonical isoform): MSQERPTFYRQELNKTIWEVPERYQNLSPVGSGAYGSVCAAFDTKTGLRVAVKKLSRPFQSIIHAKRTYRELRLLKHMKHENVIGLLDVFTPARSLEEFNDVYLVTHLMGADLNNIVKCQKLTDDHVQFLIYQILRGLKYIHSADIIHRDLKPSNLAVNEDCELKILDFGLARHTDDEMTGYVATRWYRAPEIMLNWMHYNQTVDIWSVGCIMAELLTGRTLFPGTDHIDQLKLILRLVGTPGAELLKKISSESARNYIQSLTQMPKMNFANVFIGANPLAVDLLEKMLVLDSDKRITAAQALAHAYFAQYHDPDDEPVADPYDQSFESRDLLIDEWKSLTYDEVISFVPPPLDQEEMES

The IC50 is the midpoint of a concentration-inhibition curve. High values mean a need for much substance, low ones inhibition by little substance. For the compound `COc1ccc(-n2nc(C(C)(C)C)cc2NC(=O)Nc2ccc(Oc3ccnc(Nc4cc(OC)cc(C(=O)NCCN5CCOCC5)c4)n3)c3ccccc23)cc1` [Example 54, 3-((4-((4-(3-(3-(tert-butyl)-1-(4-methoxyphenyl)-1H-pyrazol-5-yl)ureido)naphthalen-1-yl)oxy)pyrimidin-2-yl)amino)-5-methoxy-N-(2-morpholinoethyl)benzamide], in series [1], the “Cell viability at time point in d-U937 cells 4 h” value was “−ve (−ve and +ve indicate that the value is below and above respectively, the no significant effect threshold, defined as 30% inhibition at 1 μg/mL at the time point indicated.)”; the “Cell viability at time point in d-U937 cells 24 h” value was “−ve (−ve and +ve indicate that the value is below and above respectively, the no significant effect threshold, defined as 30% inhibition at 1 μg/mL at the time point indicated.)”. The same compound had an IC50 in series [2] of 12 nM.

Take `Cc1ccc(-n2nc(C(C)C)cc2NC(=O)Nc2ccc(Oc3ccnc(Nc4cc(C)cc(C(=O)NCCN5CCOCC5)c4)n3)c3ccccc23)cc1` [Example 44, 3-((4-((4-(3-(3-isopropyl-1-(p-tolyl)-1H-pyrazol-5-yl)ureido)naphthalen-1-yl)oxy)pyrimidin-2-yl)amino)-5-methyl-N-(2-morpholinoethyl)benzamide]: in series [1], the “Cell viability at time point in d-U937 cells 4 h” value was “−ve (−ve and +ve indicate that the value is below and above respectively, the no significant effect threshold, defined as 30% inhibition at 1 μg/mL at the time point indicated.)”; the “Cell viability at time point in d-U937 cells 24 h” value is “−ve (−ve and +ve indicate that the value is below and above respectively, the no significant effect threshold, defined as 30% inhibition at 1 μg/mL at the time point indicated.)”. In series [2], this compound yielded an IC50 of less than 1 nM.

For the compound `COc1ccc(C(=O)NCCN2CCOCC2)cc1Nc1nccc(Oc2ccc(NC(=O)Nc3cc(C(C)(C)C)nn3-c3ccc(C)cc3)c3ccccc23)n1` [Example 31, 3-((4-((4-(3-(3-(tert-butyl)-1-(p-tolyl)-1H-pyrazol-5-yl)ureido)naphthalen-1-yl)oxy)pyrimidin-2-yl)amino)-4-methoxy-N-(2-morpholinoethyl)benzamide], in series [1], the “Cell viability at time point in d-U937 cells 4 h” value is “−ve (−ve and +ve indicate that the value is below and above respectively, the no significant effect threshold, defined as 30% inhibition at 1 μg/mL at the time point indicated.)”; the “Cell viability at time point in d-U937 cells 24 h” value was “−ve (−ve and +ve indicate that the value is below and above respectively, the no significant effect threshold, defined as 30% inhibition at 1 μg/mL at the time point indicated.)”. The same compound displayed an IC50 in series [2] of 8 nM.

Take `Cc1ccc(-n2nc(C(C)C)cc2NC(=O)Nc2ccc(Oc3ccnc(Nc4cc(Cl)cc(C(=O)NCCN5CCOCC5)c4)n3)c3ccccc23)cc1` [Example 60, 3-chloro-5-((4-((4-(3-(3-isopropyl-1-(p-tolyl)-1H-pyrazol-5-yl)ureido)naphthalen-1-yl)oxy)pyrimidin-2-yl)amino)-N-(2-morpholinoethyl)benzamide]: in series [1], the “Cell viability at time point in d-U937 cells 4 h” value was “−ve (−ve and +ve indicate that the value is below and above respectively, the no significant effect threshold, defined as 30% inhibition at 1 μg/mL at the time point indicated.)”; the “Cell viability at time point in d-U937 cells 24 h” value was “−ve (−ve and +ve indicate that the value is below and above respectively, the no significant effect threshold, defined as 30% inhibition at 1 μg/mL at the time point indicated.)”. This compound also yielded an IC50 in series [2] of 16 nM.
